Literature values in patent US20210353710A1, “GLP-1R AGONIST AND METHODS OF TREATMENT” (The Johns Hopkins University, priority 2020, published 2021).

Conditions: given twice a day for one month

Substance: Exendin-4
- effect on blood glucose in humans: hypoglycemic effect
